In patent US20230391768A2, “IMIDAZOPYRIDINE DERIVATIVES AND AZA-IMIDAZOPYRIDINE DERIVATIVES AS JANUS KINASE 2 INHIBITORS AND USES THEREOF” (Dana-Farber Cancer Institute, Inc., priority 2018, published 2023):

Experiments:
Assay in all cases: KINOMEscan
Format in all cases: binding
Settings in all cases: read-out: percent of control
AKT3 = AKT3 (Homo sapiens (Human), UniProt Q9Y243)
Procedure: (§1) In vitro profiling of Compound I-2 (1 μM) was performed using the DiscoveRx KINOMEscan® platform.

ASK2 = ASK2 (Homo sapiens (Human), UniProt O95382)
Procedure: as §1

CAMK1 = CAMK1 (Homo sapiens (Human), UniProt Q14012)
Chain of CAMK1 (Q14012 whole entry): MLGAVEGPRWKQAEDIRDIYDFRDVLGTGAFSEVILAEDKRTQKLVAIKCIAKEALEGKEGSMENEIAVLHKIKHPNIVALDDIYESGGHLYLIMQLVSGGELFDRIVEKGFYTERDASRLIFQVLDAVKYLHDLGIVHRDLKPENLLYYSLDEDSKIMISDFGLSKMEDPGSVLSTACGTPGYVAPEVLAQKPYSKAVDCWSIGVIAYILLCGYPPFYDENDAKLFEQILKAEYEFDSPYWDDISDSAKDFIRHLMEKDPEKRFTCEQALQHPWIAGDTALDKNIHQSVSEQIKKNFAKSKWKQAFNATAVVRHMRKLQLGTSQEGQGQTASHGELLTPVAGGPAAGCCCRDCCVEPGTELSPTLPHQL
Procedure: as §1

CDK2 = CDK2 (Homo sapiens (Human), UniProt P24941)
Procedure: as §1

CDKL2 = CDKL2 (Homo sapiens (Human), UniProt Q92772)
Procedure: as §1

DCAMKL1 = DCAMKL1 (Homo sapiens (Human), UniProt O15075)
Chain of DCAMKL1 (O15075 whole entry, looked up): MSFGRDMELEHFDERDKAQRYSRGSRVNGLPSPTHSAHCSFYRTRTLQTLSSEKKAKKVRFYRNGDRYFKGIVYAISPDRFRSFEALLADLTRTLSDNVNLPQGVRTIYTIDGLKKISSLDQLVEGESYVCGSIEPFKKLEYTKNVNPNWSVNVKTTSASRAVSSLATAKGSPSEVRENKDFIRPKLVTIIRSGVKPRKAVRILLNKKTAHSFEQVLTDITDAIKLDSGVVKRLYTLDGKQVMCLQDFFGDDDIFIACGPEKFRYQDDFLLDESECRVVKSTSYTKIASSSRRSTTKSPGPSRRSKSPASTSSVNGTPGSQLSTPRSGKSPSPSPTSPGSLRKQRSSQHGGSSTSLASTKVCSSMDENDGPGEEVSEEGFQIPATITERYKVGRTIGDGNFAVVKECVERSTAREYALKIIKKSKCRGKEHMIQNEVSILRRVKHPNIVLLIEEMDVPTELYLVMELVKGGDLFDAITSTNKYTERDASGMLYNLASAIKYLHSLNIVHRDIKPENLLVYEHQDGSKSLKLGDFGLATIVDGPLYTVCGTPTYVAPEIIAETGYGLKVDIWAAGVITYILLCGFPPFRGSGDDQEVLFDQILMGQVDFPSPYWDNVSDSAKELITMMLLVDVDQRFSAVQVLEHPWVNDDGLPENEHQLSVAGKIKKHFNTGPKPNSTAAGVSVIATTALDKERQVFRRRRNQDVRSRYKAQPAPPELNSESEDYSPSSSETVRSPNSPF
Procedure: as §1

DCAMKL2 = DCAMKL2 (Homo sapiens (Human), UniProt Q8N568)
Procedure: as §1

DDR2 = DDR2 (Homo sapiens (Human), UniProt Q16832)
Procedure: as §1

EPHB3 = EPHB3 (Homo sapiens (Human), UniProt P54753)
Procedure: as §1

ERK1 = ERK1 (Homo sapiens (Human), UniProt P27361)
Chain of ERK1 (P27361 whole entry): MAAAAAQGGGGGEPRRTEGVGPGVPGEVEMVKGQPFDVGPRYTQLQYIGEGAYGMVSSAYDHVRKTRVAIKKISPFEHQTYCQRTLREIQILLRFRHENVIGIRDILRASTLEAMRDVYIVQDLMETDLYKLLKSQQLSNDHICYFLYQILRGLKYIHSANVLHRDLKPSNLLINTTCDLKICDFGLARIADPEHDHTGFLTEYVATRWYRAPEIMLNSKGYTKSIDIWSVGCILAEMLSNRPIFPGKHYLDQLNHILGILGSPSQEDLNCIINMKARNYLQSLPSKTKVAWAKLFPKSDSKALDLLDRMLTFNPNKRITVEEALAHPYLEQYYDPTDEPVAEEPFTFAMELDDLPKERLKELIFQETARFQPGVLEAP
Procedure: as §1

FLT3 (K663Q) = FLT3 (K663Q) (Homo sapiens (Human), UniProt P36888, K663Q)
Procedure: as §1

GRK3 = GRK3 (Homo sapiens (Human), UniProt P35626)
Procedure: as §1

IKK-alpha = IKK-alpha (Homo sapiens (Human), UniProt O15111)
Procedure: as §1

IKK-epsilon = IKK-epsilon (Homo sapiens (Human), UniProt Q14164)
Procedure: as §1

IRAK4 = IRAK4 (Homo sapiens (Human), UniProt Q9NWZ3)
Procedure: as §1

LATS2 = LATS2 (Homo sapiens (Human), UniProt Q9NRM7)
Procedure: as §1

LRRK2(G2019S) = LRRK2(G2019S) (Homo sapiens (Human), UniProt Q5S007, G2019S)
Procedure: as §1

LYN = LYN (Homo sapiens (Human), UniProt P07948)
Procedure: as §1

MAP4K4 = MAP4K4 (Homo sapiens (Human), UniProt O95819)
Procedure: as §1

MELK = MELK (Homo sapiens (Human), UniProt Q14680)
Procedure: as §1

MST4 = MST4 (Homo sapiens (Human), UniProt Q9P289)
Chain of MST4 (Q9P289 whole entry): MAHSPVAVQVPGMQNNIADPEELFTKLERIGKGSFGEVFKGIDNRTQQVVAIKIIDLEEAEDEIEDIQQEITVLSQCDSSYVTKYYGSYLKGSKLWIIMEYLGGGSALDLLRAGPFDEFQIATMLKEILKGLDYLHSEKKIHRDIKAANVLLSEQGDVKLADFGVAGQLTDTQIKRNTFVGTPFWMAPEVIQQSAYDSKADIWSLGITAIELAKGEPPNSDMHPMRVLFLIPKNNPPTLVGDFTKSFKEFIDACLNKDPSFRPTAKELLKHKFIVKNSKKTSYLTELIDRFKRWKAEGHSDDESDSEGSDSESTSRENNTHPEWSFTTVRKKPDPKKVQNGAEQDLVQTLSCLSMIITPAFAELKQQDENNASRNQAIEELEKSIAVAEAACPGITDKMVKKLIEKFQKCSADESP
Procedure: as §1

PAK6 = PAK6 (Homo sapiens (Human), UniProt Q9NQU5)
Procedure: as §1

PDPK1 = PDPK1 (Homo sapiens (Human), UniProt O15530)
Procedure: as §1

PIK3CA(H1047L) = PIK3CA(H1047L) (Homo sapiens (Human), UniProt P42336, H1047L)
Procedure: as §1

PIKFYVE = PIKFYVE (Homo sapiens (Human), UniProt Q9Y2I7)
Procedure: as §1

PIP5K2C = PIP5K2C (Homo sapiens (Human), UniProt Q8TBX8)
Chain of PIP5K2C (Q8TBX8 whole entry): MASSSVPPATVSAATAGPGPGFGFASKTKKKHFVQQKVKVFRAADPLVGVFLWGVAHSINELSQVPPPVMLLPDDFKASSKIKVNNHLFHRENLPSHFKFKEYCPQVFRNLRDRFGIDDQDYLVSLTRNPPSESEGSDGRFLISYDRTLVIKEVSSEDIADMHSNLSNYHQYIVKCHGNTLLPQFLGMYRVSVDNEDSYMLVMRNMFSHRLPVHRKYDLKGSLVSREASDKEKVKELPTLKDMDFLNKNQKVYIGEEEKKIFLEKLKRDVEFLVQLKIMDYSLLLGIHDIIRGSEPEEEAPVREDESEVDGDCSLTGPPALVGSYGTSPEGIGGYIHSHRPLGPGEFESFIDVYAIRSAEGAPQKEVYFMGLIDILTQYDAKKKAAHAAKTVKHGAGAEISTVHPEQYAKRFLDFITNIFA
Procedure: as §1

PKN2 = PKN2 (Homo sapiens (Human), UniProt Q16513)
Procedure: as §1

PRKCD = PRKCD (Homo sapiens (Human), UniProt Q05655)
Procedure: as §1

PRKCE = PRKCE (Homo sapiens (Human), UniProt Q02156)
Chain of PRKCE (Q02156 whole entry): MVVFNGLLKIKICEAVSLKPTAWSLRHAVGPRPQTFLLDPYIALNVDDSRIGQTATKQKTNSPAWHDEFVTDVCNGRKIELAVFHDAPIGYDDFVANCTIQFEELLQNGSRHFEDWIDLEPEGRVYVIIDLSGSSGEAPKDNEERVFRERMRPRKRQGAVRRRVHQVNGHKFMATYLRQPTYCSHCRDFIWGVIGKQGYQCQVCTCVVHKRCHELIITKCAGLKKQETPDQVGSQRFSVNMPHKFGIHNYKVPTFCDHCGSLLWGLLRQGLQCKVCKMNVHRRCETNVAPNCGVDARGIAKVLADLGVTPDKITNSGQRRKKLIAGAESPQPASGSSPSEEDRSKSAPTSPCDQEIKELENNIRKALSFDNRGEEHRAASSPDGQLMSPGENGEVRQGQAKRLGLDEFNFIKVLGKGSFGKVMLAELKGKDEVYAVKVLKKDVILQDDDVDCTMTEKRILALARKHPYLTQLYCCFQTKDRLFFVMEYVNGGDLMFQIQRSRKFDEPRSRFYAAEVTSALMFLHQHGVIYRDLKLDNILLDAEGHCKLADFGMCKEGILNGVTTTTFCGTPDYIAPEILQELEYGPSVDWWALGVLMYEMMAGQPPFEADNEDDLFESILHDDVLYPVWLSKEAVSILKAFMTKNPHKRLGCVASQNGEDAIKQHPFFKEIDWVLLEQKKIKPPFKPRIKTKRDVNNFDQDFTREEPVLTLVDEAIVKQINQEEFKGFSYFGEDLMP
Procedure: as §1

PRKCQ = PRKCQ (Homo sapiens (Human), UniProt Q04759)
Chain of PRKCQ (Q04759 whole entry): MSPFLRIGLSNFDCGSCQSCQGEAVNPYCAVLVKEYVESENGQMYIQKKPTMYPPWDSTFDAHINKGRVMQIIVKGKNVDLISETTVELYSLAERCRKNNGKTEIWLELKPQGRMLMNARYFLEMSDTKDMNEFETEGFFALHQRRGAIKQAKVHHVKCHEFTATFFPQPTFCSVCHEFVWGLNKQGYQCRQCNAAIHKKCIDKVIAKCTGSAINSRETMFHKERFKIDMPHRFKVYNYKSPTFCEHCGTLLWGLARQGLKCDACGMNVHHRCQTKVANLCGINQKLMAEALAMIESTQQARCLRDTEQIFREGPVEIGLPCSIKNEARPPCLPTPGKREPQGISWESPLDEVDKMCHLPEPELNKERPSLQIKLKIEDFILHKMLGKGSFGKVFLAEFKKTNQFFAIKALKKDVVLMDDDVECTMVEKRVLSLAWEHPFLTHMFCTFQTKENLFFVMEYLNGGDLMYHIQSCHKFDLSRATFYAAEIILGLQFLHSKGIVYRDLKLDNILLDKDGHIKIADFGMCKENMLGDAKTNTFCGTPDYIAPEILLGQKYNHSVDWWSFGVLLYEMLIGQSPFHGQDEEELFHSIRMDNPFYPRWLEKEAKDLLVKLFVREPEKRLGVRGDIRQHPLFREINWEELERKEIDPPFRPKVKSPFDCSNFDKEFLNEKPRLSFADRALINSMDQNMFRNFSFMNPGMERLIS
Procedure: as §1

RIOK3 = RIOK3 (Homo sapiens (Human), UniProt O14730)
Procedure: as §1

RIPK4 = RIPK4 (Homo sapiens (Human), UniProt P57078)
Procedure: as §1

ROS1 = ROS1 (Homo sapiens (Human), UniProt P08922)
Procedure: as §1

STK33 = STK33 (Homo sapiens (Human), UniProt Q9BYT3)
Chain of STK33 (Q9BYT3 whole entry): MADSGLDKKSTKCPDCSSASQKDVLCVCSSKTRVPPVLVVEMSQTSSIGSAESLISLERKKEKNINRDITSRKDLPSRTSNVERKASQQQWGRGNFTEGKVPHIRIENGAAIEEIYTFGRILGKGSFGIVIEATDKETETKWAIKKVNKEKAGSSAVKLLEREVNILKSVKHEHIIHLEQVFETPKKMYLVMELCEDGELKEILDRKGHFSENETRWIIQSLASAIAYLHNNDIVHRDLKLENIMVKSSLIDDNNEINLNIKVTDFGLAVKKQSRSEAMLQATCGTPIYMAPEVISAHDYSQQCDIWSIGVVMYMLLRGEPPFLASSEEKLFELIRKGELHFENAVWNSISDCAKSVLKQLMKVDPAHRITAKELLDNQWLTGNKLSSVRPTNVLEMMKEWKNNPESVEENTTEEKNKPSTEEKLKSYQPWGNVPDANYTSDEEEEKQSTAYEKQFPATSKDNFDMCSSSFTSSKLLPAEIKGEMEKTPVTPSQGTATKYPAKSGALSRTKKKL
Procedure: as §1

TAOK2 = TAOK2 (Homo sapiens (Human), UniProt Q9UL54)
Procedure: as §1

TBK1 = TBK1 (Homo sapiens (Human), UniProt Q9UHD2)
Procedure: as §1

TNK2 = TNK2 (Homo sapiens (Human), UniProt Q07912)
Procedure: as §1

YES = YES (Homo sapiens (Human), UniProt P07947)
Chain of YES (P07947 whole entry): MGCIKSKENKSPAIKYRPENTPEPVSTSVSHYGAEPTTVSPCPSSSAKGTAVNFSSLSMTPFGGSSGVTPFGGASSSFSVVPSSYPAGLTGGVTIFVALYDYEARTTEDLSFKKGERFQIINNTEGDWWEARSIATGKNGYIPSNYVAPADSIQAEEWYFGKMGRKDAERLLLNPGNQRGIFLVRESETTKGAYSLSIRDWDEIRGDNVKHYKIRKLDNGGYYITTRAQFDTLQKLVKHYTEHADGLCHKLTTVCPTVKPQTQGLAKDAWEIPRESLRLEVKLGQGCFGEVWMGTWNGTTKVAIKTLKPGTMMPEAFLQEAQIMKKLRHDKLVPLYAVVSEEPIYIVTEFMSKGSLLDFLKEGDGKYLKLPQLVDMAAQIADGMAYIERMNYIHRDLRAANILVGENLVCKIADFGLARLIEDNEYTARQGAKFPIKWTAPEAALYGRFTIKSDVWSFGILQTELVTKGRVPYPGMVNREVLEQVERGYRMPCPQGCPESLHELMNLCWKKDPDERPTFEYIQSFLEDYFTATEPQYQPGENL
Procedure: as §1

p38-gamma = p38-gamma (Homo sapiens (Human), UniProt P53778)
Procedure: as §1

| SMILES | remaining binding at 1 µM (AKT3) [%] | remaining binding at 1 µM (ASK2) [%] | remaining binding at 1 µM (CAMK1) [%] | remaining binding at 1 µM (CDK2) [%] | remaining binding at 1 µM (CDKL2) [%] | remaining binding at 1 µM (DCAMKL1) [%] | remaining binding at 1 µM (DCAMKL2) [%] | remaining binding at 1 µM (DDR2) [%] | remaining binding at 1 µM (EPHB3) [%] | remaining binding at 1 µM (ERK1) [%] | remaining binding at 1 µM (FLT3 (K663Q)) [%] | remaining binding at 1 µM (GRK3) [%] | remaining binding at 1 µM (IKK-alpha) [%] | remaining binding at 1 µM (IKK-epsilon) [%] | remaining binding at 1 µM (IRAK4) [%] | remaining binding at 1 µM (LATS2) [%] | remaining binding at 1 µM (LRRK2(G2019S)) [%] | remaining binding at 1 µM (LYN) [%] | remaining binding at 1 µM (MAP4K4) [%] | remaining binding at 1 µM (MELK) [%] | other results |
| --- | --- | --- | --- | --- | --- | --- | --- | --- | --- | --- | --- | --- | --- | --- | --- | --- | --- | --- | --- | --- | --- |
| CCN1CCN(Cc2cc(NC(=O)c3ccc(C)c(-c4ccc5nc(NC(=O)C6CC6)cn5c4)c3)cc(C(F)(F)F)c2)CC1 [Compound I-6, 3-(2-(cyclopropanecarboxamido)imidazo[1,2-a]pyridin-6-yl)-N-(3-((4-ethylpiperazin-1-yl)methyl)-5-(trifluoromethyl)phenyl)-4-methylbenzamide] | 94 | 64 | 95 | 60 | 0.8 | 84 | 100 | 0 | 35 | 100 | 4.2 | 90 | 63 | 87 | 33 | 85 | 100 | 0.6 | 0.75 | 100 | remaining binding at 1 µM (MST4): 100%; remaining binding at 1 µM (PAK6): 97%; remaining binding at 1 µM (PDPK1): 83%; remaining binding at 1 µM (PIK3CA(H1047L)): 68%; remaining binding at 1 µM (PIKFYVE): 100%; remaining binding at 1 µM (PIP5K2C): 46%; remaining binding at 1 µM (PKN2): 100%; remaining binding at 1 µM (PRKCD): 48%; remaining binding at 1 µM (PRKCE): 83%; remaining binding at 1 µM (PRKCQ): 74%; remaining binding at 1 µM (RIOK3): 90%; remaining binding at 1 µM (RIPK4): 100%; remaining binding at 1 µM (ROS1): 59%; remaining binding at 1 µM (STK33): 100%; remaining binding at 1 µM (TAOK2): 7.6%; remaining binding at 1 µM (TBK1): 96%; remaining binding at 1 µM (TNK2): 99%; remaining binding at 1 µM (YES): 1.6%; remaining binding at 1 µM (p38-gamma): 9.4% |
| CCN1CCN(Cc2cc(NC(=O)c3ccc(C)c(-c4ccc5nc(NC(=O)C6CC6)cn5n4)c3)cc(C(F)(F)F)c2)CC1 [Compound I-2, 3-(2-(cyclopropanecarboxamido)imidazo[1,2-b]pyridazin-6-yl)-N-(3-((4-ethylpiperazin-1-yl)methyl)-5-(trifluoromethyl)phenyl)-4-methylbenzamide] | 8 | 99 | 92 | 7 | 0 | 90 | 98 | 0.1 | 30 | 95 | 5.6 | 87 | 53 | 80 | 26 | 79 | 84 | 0.55 | 0.15 | 95 | remaining binding at 1 µM (MST4): 92%; remaining binding at 1 µM (PAK6): 95%; remaining binding at 1 µM (PDPK1): 89%; remaining binding at 1 µM (PIK3CA(H1047L)): 89%; remaining binding at 1 µM (PIKFYVE): 93%; remaining binding at 1 µM (PIP5K2C): 5.7%; remaining binding at 1 µM (PKN2): 77%; remaining binding at 1 µM (PRKCD): 40%; remaining binding at 1 µM (PRKCE): 86%; remaining binding at 1 µM (PRKCQ): 27%; remaining binding at 1 µM (RIOK3): 100%; remaining binding at 1 µM (RIPK4): 98%; remaining binding at 1 µM (ROS1): 52%; remaining binding at 1 µM (STK33): 70%; remaining binding at 1 µM (TAOK2): 8.6%; remaining binding at 1 µM (TBK1): 75%; remaining binding at 1 µM (TNK2): 100%; remaining binding at 1 µM (YES): 4.7%; remaining binding at 1 µM (p38-gamma): 0% |
